Read-outs that look alike come from different tables or passages of the source.
Key:
[1] = tested on: P. falciparum 3D7 parasites; test: P. falciparum growth inhibition assay, 1-cycle (72 h treatment), SYBR DNA staining (library screen at 2 μg/mL and dose-response); type: cell-based, Plasmodium falciparum; settings: for activity at 2 µg/mL: Plasmodium falciparum; for selectivity for P. falciparum in the screens: active against the parasite at 2 μg/mL, no anti-tumour (NS-1) or cytotoxic (fibroblast) activity at 5 μg/mL
[2] = tested on: P. falciparum 3D7 parasites; test: P. falciparum growth inhibition assay, 2-cycle (120 h treatment), delayed-death screen and dose-response; type: cell-based, Plasmodium falciparum; settings: 120 h; for activity at 2 µg/mL: Plasmodium falciparum
[3] = tested on: T. gondii RH strain (RH-Tub-eYFP) tachyzoites; test: microbe, parasite or virus in culture; type: cell-based, Toxoplasma gondii
[4] = 3D7, P. falciparum, 72 h, screen at 2 μg/mL, replicate 1, read-out: Pf_72h_%Growth_Rep1
[5] = 3D7, P. falciparum, 72 h, screen at 2 μg/mL, replicate 2, read-out: Pf_72h_%Growth_Rep2
[6] = 3D7, P. falciparum, screen at 2 μg/mL, replicate 1, read-out: Pf_120h_%Growth_Rep1
[7] = 3D7, P. falciparum, screen at 2 μg/mL, replicate 2, read-out: Pf_120h_%Growth_Rep2
[8] = Toxoplasma gondii, 72 h, T. gondii, 72 h, screen at 2 μg/mL, replicate 1; read-out: Tg_72h_%Growth_Rep1
[9] = Toxoplasma gondii, 72 h, T. gondii, 72 h, screen at 2 μg/mL, replicate 2; read-out: Tg_72h_%Growth_Rep2
[10] = Toxoplasma gondii; T. gondii, 72 h, screen at 2 μg/mL, replicate 1; read-out: Tg_72h_%Growth_Rep1
[11] = Toxoplasma gondii; T. gondii, 72 h, screen at 2 μg/mL, replicate 2; read-out: Tg_72h_%Growth_Rep2
[12] = P. falciparum, 72 h, screen at 2 μg/mL, replicate 1
[13] = P. falciparum, 72 h, screen at 2 μg/mL, replicate 2
[14] = P. falciparum, screen at 2 μg/mL, replicate 1
[15] = P. falciparum, screen at 2 μg/mL, replicate 2
[16] = T. gondii, 72 h, screen at 2 μg/mL, replicate 1
[17] = T. gondii, 72 h, screen at 2 μg/mL, replicate 2
[18] = active against the parasite at 2 μg/mL, no anti-tumour (NS-1) or cytotoxic (fibroblast) activity at 5 μg/mL

Row | SMILES | activity at 2 µg/mL [1, 4] [%] | activity at 2 µg/mL [1, 5] [%] | activity at 2 µg/mL [2, 6] [%] | activity at 2 µg/mL [2, 7] [%] | percent parasite growth at 2 µg/mL [3, 8] [%] | percent parasite growth at 2 µg/mL [3, 9] [%] | Pf_72h_%Growth_Rep1 [1, 12] [%] | Pf_72h_%Growth_Rep2 [1, 13] [%] | Pf_120h_%Growth_Rep1 [2, 14] [%] | Pf_120h_%Growth_Rep2 [2, 15] [%] | Tg_72h_%Growth_Rep1 [3, 16] [%] | Tg_72h_%Growth_Rep2 [3, 17] [%] | further results
1 | COC(=O)C1=C2Nc3ccccc3[C@@]23CCN2C[C@]4(C[C@@H]5C[C@]67CCC[C@H]6CCN6CC[C@@]8(c9cccc(OC)c9N(C4)[C@@]58O)[C@@H]67)[C@@H]4OCC[C@]4(C1)[C@H]23 [Vobtusine] | 81.5 | 87 | 166 | 96.3 | 86.1 | 105 |  |  |  |  |  |  | 
2 | COC(=O)/C(=C1/OC(=O)C(c2ccccc2)=C1O)c1ccccc1 [Vulpinic acid] | 79.7 | 129 | 84.9 | 103 | 109 | 97.7 |  |  |  |  |  |  | 
3 | Cc1nnc2n1-c1sc(CCC(=O)N3CCOCC3)cc1C(c1ccccc1Cl)=NC2 [WEB 2086] | 87.3 | 87.4 | 157 | 84.4 | 91.8 | 110 |  |  |  |  |  |  | 
4 | COC[C@H]1OC(=O)c2coc3c2[C@@]1(C)C1=C(C3=O)[C@@H]2CCC(=O)[C@@]2(C)C[C@H]1OC(C)=O [Wortmannin] | 88.8 | 119 | 109 | 96.5 |  |  |  |  |  |  |  |  | percent parasite growth at 2 µg/mL [3, 10]: 97.3%; percent parasite growth at 2 µg/mL [3, 11]: 76.4%
5 | CC1(C)C=Cc2cc3ccc(=O)oc3cc2O1 [Xanthyletin] | 88.6 | 22.4 | 106 | 81.1 | 146 | 65.7 |  |  |  |  |  |  | 
6 | C=C(CC[C@]12O[C@H](C(=O)O)[C@@](O)(C(=O)O)[C@](C(=O)O)(O1)[C@H](OC(=O)/C=C/[C@@H](C)C[C@@H](C)CC)[C@H]2O)[C@@H](OC(C)=O)[C@H](C)Cc1ccccc1 [Zaragozic acid A] | 92.7 | 117 | 104 | 107 | 122 | 82.3 |  |  |  |  |  |  | 
7 | C[C@H]1CCC[C@H](O)CCCCCc2cc(O)cc(O)c2C(=O)O1 [Zearalanol, alpha-] |  |  |  |  |  |  | 80.84 | 78.13 | 88.76 | 84.84 | 162.37 | 92.02 | 
8 | C[C@H]1CCC[C@@H](O)CCCCCc2cc(O)cc(O)c2C(=O)O1 [Zearalanol, beta-] |  |  |  |  |  |  | 81.97 | 86.14 | 90.97 | 85.38 | 150.26 | 92.47 | 
9 | C[C@H]1CCCC(=O)CCCCCc2cc(O)cc(O)c2C(=O)O1 [Zearalanone] |  |  |  |  | 97 | 107 |  |  |  |  |  |  | activity at 2 µg/mL ([1]; 3D7, 72 h, P. falciparum, 72 h, screen at 2 μg/mL, replicate 1, read-out: Pf_72h_%Growth_Rep1): 31.9%; activity at 2 µg/mL ([1]; 3D7, 72 h, P. falciparum, 72 h, screen at 2 μg/mL, replicate 2, read-out: Pf_72h_%Growth_Rep2): 78.2%; activity at 2 µg/mL ([2]; 3D7, 120 h, P. falciparum, screen at 2 μg/mL, replicate 1, read-out: Pf_120h_%Growth_Rep1): 102%; activity at 2 µg/mL ([2]; 3D7, 120 h, P. falciparum, screen at 2 μg/mL, replicate 2, read-out: Pf_120h_%Growth_Rep2): 77.7%
10 | C[C@@H]1CCC[C@@H](O)CCC/C=C/c2cc(O)cc(O)c2C(=O)O1 [Zearalenol, alpha-] |  |  |  |  |  |  | 64.20 | 80.17 | 153.36 | 83.41 | 85.29 | 104.82 | 
11 | C[C@@H]1CCC[C@H](O)CCC/C=C/c2cc(O)cc(O)c2C(=O)O1 [Zearalenol, beta-] |  |  |  |  |  |  | 92.46 | 126.46 | 110.27 | 105.90 | 134.26 | 80.69 | 
12 | C[C@H]1CCCC(=O)CCC/C=C/c2cc(O)cc(O)c2C(=O)O1 [Zearalenone] | 89.4 | 99.7 | 88.9 | 64.3 |  |  |  |  |  |  |  |  | percent parasite growth at 2 µg/mL [3, 10]: 104%; percent parasite growth at 2 µg/mL [3, 11]: 74%
13 | CO[C@H]1C[C@@H]2CC[C@@H](C)[C@@](O)(O2)C(=O)C(=O)N2CCCC[C@H]2C(=O)O[C@H]([C@H](C)C[C@@H]2CC[C@H](n3cnnn3)[C@H](OC)C2)CC(=O)[C@H](C)/C=C(\C)[C@@H](O)[C@@H](OC)C(=O)[C@H](C)C[C@H](C)/C=C/C=C/C=C/1C [Zotarolimus] | 75.7 | 88.3 | 97.5 | 77.1 | 120 | 77.8 |  |  |  |  |  |  | 
14 | C[C@@H]1C[C@@H]([C@H](O)CC2CC(=O)NC(=O)C2)C(=O)[C@@H](C)C1 [cycloheximide, reference compound] | 1.07 | 4.34 | 1.73 | 0.69 |  |  |  |  |  |  |  |  | activity in the screen against P. falciparum ([1]; 2 μg/mL, 72 h, active = ≥80 % growth inhibition): active; percent parasite growth at 2 µg/mL [3, 10]: 7.84%; percent parasite growth at 2 µg/mL [3, 11]: 1.95%
15 | CC(=O)O[C@@H]1/C=C\[C@@](C)(O)C(=O)[C@@H](C)C/C=C\[C@H]2[C@H](O)C(C)=C(C)[C@H]3C(Cc4ccccc4)NC(=O)[C@]132 (stereo partly drawn) [cytochalasin C] |  |  |  |  |  |  | 7.71 | 8.08 | 12.52 | 10.45 | 0.57 | 15.53 | selectivity for P. falciparum in the screens [1]: active selectively against P. falciparum and T. gondii; selectivity for T. gondii in the screens [3, 18]: active selectively against P. falciparum and T. gondii
16 | C=C1[C@@H](C)[C@H]2[C@H](Cc3ccccc3)NC(=O)[C@]23[C@H](O)/C=C/[C@](C)(O)C[C@@H](C)C/C=C/[C@H]3[C@@H]1O [cytochalasin J] |  |  |  |  |  |  | 6.03 | 6.00 | 0.52 | -0.13 | 4.83 | 6.80 | selectivity for P. falciparum in the screens [1]: active selectively against P. falciparum and T. gondii; selectivity for T. gondii in the screens [3, 18]: active selectively against P. falciparum and T. gondii
17 | CCc1c(Cl)c(O)c(Cl)c(O)c1C(=O)O[C@H]1[C@H](O)[C@H](OC)[C@H](OC/C2=C\C=C\C[C@H](O)/C(C)=C/[C@H](CC)[C@@H](O[C@@H]3OC(C)(C)[C@@H](OC(=O)C(C)C)[C@H](O)[C@@H]3O)/C(C)=C/C(C)=C/C[C@@H]([C@@H](C)O)OC2=O)O[C@@H]1C [fidaxomicin, reference compound] |  |  |  |  |  |  |  |  |  |  |  |  | activity at 2 µg/mL ([1]; 3D7, library screen at 2 μg/mL, 72 h, % growth, replicate 1, read-out: Pf_72h_%Growth_Rep1): 3.04%; activity at 2 µg/mL ([1]; 3D7, library screen at 2 μg/mL, 72 h, % growth, replicate 2, read-out: Pf_72h_%Growth_Rep2): -1.42%; selectivity for P. falciparum in the screens [1]: selective for P. falciparum; activity at 2 µg/mL ([2]; 3D7, library screen at 2 μg/mL, % growth, replicate 1, read-out: Pf_120h_%Growth_Rep1): 13.8%; activity at 2 µg/mL ([2]; 3D7, library screen at 2 μg/mL, % growth, replicate 2, read-out: Pf_120h_%Growth_Rep2): -3.62%; percent parasite growth at 2 µg/mL ([3]; Toxoplasma gondii, 72 h, library screen at 2 μg/mL, 72 h, % growth, replicate 1; read-out: Tg_72h_%Growth_Rep1): 85.9%; percent parasite growth at 2 µg/mL ([3]; Toxoplasma gondii, 72 h, library screen at 2 μg/mL, 72 h, % growth, replicate 2; read-out: Tg_72h_%Growth_Rep2): 92.4%
